Data from patent US20250354125A1, “HIGH-[…]-TERM CULTURED E[…] WITH ANGIOGENESIS” (priority 2024, published 2025).
Ends that are not written are not given here.

What was measured:
[1] = tested on: HUVEC Endothelial organoids; assay: Organoid stimulation with IL-1β and TGF-β and treatment with PIEZO1 or ROCK inhibitor; EndMT and endothelial marker expression; format: cell-based, human; details: FIG. 14a/14b; for TAGLN expression / fibronectin expression: EndMT marker
Procedure: (§1) HUVEC Endothelial organoids were seeded in 384-well U-bottom ULA plates (S-bio #MS-9384UZ, lot 20839306) and centrifuged at 1,000 rpm for 5 min (142 rcf, Thermo Scientific Sorvall ST16 centrifuge). Endothelial organoid seeding volume was 25 μL per well. The HUVEC organoid seeding solution consisted of 120,000 HUVEC cells/mL, 160 μg/mL Matrigel (Corning #356-231, 10.7 mg/mL), 10% FBS (GeminiBio #900-108) and 0.24% methylcellulose (Methocel, Sigma Aldrich #94378). A key procedure being to add cold Matrigel into warm media to induce gelling.

[2] = tested on: HUVEC Endothelial organoids; assay: LPS and TNF-α stimulated endothelial organoid; E-selectin immunofluorescence and bright field imaging; format: cell-based, human
Procedure: as §1
Fixed HUVEC Organoids were washed with PBS and permeabilized with 0.1% Tween in PBS for 10 min at 4° C. Samples were incubated with Organoid washing buffer (OWB, 0.2% BSA/0.1% Triton-X-100 in PBS) to prevent non-specific binding for 15 min at 4° C. Samples were incubated with primary antibodies in OWB at 4° C. overnight. Primary antibodies include: SELE Rabbit pAb (ABclonal, #A2191, Lot 5500024697, 1:1,000 dilution), Human VE-Cadherin Antibody (R&D systems, #AF938, 1:40 dilution) and Mouse anti-CD34 antibody (Clone QBEND/10, Invitrogen #MA1-10202, 1:500 dilution). Samples were washed with OWB and incubated with secondary antibodies or Alexa Fluor 647 Phalloidin (Invitrogen, #A22287, Lot 2170291, 1:400 dilution) in OWB for 2 hours at room temperature (RT). Secondary antibodies include: Goat anti-Rabbit Alexa Fluor 647 (Invitrogen, #A-21244, Lot 2134003, 1:500 dilution), Donkey anti-rat Alexa Fluor 488 (1:2,000 dilution), Goat anti-mouse Alexa Fluor 488 (Thermo Fisher, #A-11001, 1:2,000 dilution) and Donkey anti-mouse Alexa Fluor 568 (Invitrogen #A10037, 1:1,000 dilution). Organoids were washed with PBS and incubated with DAPI in PBS for 30 min at RT and imaged using Spinning disk Confocal microscope (Nikon, CSU-W1) with 10×, 20× and 60× magnification. E-selectin, Integrin α6 and CD34 stained organoids were performed without permeabilization step, VE-Cadherin and Phalloidin stained organoids were performed with permeabilization step
There is currently a lot of research being conducted on endothelial cells in relation to inflammation. […]

Molecule | TAGLN expression [1] | fibronectin expression [1] | PECAM1 expression [1] | changes in the bright field (BF) ([2]; after 24 hours of treatment) | E-selectin signal on the surface of the organoids ([2]; fluorescent staining after 24 hours of treatment, compared to the control group, FIG. 11) | E-selectin fluorescence in relation to concentration ([2]; fluorescent staining, FIG. 11)
C[C@@H](N)[C@H]1CC[C@H](C(=O)Nc2ccncc2)CC1 [Y-27632] | TAGLN expression remained unchanged | elevated fibronectin levels | increased PECAM1 expression | – | – | –
GsMTx4: PIEZO1 inhibitor (GCLEFWWKCNPNDDKCCRPKLKCSKLFKLCNFSF; ends and bridges not checked; cysteine pairing not given here; UniProt Q7YT39 47-80, looked up) | did not alter TAGLN | decreased fibronectin expression | – | – | – | –
IL-1β: cytokine used for organoid stimulation; its effect indicated an inflammatory response | without affecting fibronectin or TAGLN levels | without affecting fibronectin | reduced PECAM1 expression | – | – | –
TNF-α | – | – | – | no significant changes were observed | showed expression of the E-selectin signal | increase in fluorescence proportional to their concentrations
